Assay [1] relates to P388/ADR. The experiment in a line: Reversal of ABCB1 mediated doxorubicin-resistance in mouse P388/ADR cells assessed as cell growth inhibition incubated for 48 hrs by MTT assay. The assay is classed as functional, cell-based. Background: Tetrazolium dyes change colour on reduction, which living cells bring about.
The test system of assay [2] is P388/ADR. Put plainly: Potency index, ratio of verapamil IC50 to compound IC50 for reversal of ABCB1 mediated doxorubicin-resistance in mouse P388/ADR cells assessed as cell growth inhibition incubated for 48 hrs by MTT assay. The assay is classed as functional.

The IC50 is the concentration that inhibits the measured activity by half. Regarding `COc1ccc(CCN(C)CCCOc2ccc(S(=O)(=O)c3c(C(C)C)cn4ccccc34)cc2)cc1OC` [FANTOFARONE], the IC50 in the assay on P388/ADR [1] was 30 µM. The “Ratio IC50” value in the assay on P388/ADR [2] worked out at 4.5.

Source of the values: ChEMBL document CHEMBL5346860, “Cancer multidrug-resistance reversal by ABCB1 inhibition: A recent update” (Eur J Med Chem, 2022).
